The target of one data set is GalG (Bifidobacterium breve, UniProt F9Y1U6). As to the kind of experiment: HPTLC of hydrolysis products. In kind it is biochemical.
The next data set addresses T1, GalR (Bifidobacterium breve UCC2003, UniProt F9Y1U7 1-351).
T1 sequence: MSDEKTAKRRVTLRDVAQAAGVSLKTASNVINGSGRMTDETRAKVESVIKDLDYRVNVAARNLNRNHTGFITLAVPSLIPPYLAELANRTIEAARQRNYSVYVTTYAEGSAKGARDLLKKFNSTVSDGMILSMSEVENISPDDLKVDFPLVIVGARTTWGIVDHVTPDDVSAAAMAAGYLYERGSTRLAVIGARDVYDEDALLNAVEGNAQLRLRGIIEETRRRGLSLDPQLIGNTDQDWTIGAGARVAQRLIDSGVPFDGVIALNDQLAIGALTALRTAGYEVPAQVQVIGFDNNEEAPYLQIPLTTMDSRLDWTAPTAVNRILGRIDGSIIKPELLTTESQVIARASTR
The data set can be described thus: EMSA. (In general: Mobility shift assays separate free from complexed probe on a gel.)

Like-named read-outs stand apart in the source and are kept apart here.

Regarding `OC[C@H]1O[C@@H](O[C@@H]2[C@H](O)[C@@H](O)[C@H](O[C@@H]3[C@H](O)[C@@H](O)C(O)O[C@@H]3CO)O[C@@H]2CO)[C@H](O)[C@@H](O)[C@H]1O` (stereo partly shown) [galactotriose], at GalG (galactotriose generated in situ from potato galactan by GalA or GalAT), the “HPTLC of hydrolysis products” value is “Upon addition of GalG to the reaction mix the galactotriose is further hydrolysed”.
Turning to `OC[C@H]1O[C@@H](O[C@@H]2[C@H](O)[C@@H](O)C(O)O[C@@H]2CO)[C@H](O)[C@@H](O)[C@H]1O` (stereo partly shown) [galactobiose], the “HPTLC of hydrolysis products” value at GalG is “The hydrolysis products of galactobiose and lactose following incubation with GalG”.

B1: galCIR2 (dsDNA)
DNA 1: TGACAAATTGGTACACAGGTGTATCATCTTAGGTA
DNA 2: TACCTAAGATGATACACCTGTGTACCAATTTGTCA
As for B1, in the data set with GalR, the binding result is “binds”.

B2: galCIR1 (dsDNA)
DNA 1: TTAGGTATTGGTACACGGGTGTACCAAAGAAAACA
DNA 2: TGTTTTCTTTGGTACACCCGTGTACCAATACCTAA
B2: in the data set with GalR, the binding result is “binds”.
